pIC50: −log10 of the molar value.
Tests used:
KRAS G12D/RAF1 = target: T1, KRAS G12D/RAF1 (Homo sapiens, UniProt P01116, G12D); assay: Protein-protein interaction (PPI) HTRF assay KRAS G12D/RAF1; assay type: binding
T1 construct: His6-MBP (N, cleaved yes); made in house; host or cells: E. coli
How it was run: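 HTRF pairing of His-tagged RAF1 (52-131) plus Tb-cryptate donor with GppNHp-exchanged biotin-RAS (KRAS 1-169 wt/G12D/G12V, NRAS wt) plus streptavidin-d2 acceptor; compound sits 30 min with RAS first, then 1 h RT with RAF1. IC50 derived from 665/615 ratio, untagged RAF1 defining full inhibition.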

[1] = target: T2, GST-tagged KRAS-G12D (2-169) (Homo sapiens, UniProt P01116, G12D); assay: Nucleotide exchange assay (NEA), SOS-mediated, HTRF, KRAS G12D; assay type: biochemical; settings: Table 4, IC50 extracted at 30 min
T2 construct: GST-tagged KRAS-G12D (2-169, Reaction Biology, MSC-11-539); purchased Reaction Biology MSC-11-539 (KRAS G12D); MSC-11-502 (SOS1cat)
How it was run: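 IC50 values come from 4-parameter fits at the 30 min time point of an SOS-driven exchange read by HTRF, normalised to DMSO (0%) and SOS-free blank (100%). Final reaction: 5 nM GST-KRAS-G12D (2-169), 20 nM SOScat, 150 nM fluorescent GTP-DY-647P1, after 1 h RT compound preincubation with KRAS and Tb-cryptate anti-GST.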

T2 sequence (P01116 2-169 isoform P01116-2 G12D): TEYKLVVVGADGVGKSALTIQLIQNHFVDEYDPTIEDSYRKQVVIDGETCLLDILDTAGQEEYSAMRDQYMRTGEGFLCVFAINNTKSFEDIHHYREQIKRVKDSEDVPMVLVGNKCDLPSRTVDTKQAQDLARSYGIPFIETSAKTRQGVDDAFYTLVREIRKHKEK
T1 sequence (P01116 with tags, fused parts or gaps isoform P01116-2 G12D): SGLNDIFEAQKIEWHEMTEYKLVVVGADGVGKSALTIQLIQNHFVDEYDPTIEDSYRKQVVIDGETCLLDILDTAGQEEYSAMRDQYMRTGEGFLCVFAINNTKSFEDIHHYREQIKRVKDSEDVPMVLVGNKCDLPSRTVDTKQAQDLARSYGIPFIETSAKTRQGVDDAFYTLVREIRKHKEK

Structure (SMILES) | pIC50 (KRAS G12D/RAF1; Table 4) | pIC50 [1] | pIC50 (KRAS G12D/RAF1; Table 4, listed as 74.1) | pIC50 ([1]; listed as 74.1)
N#Cc1c(N2CCCC(O)CC2)nc(OC[C@@]23CCCN2C[C@H](F)C3)nc1N1CC2(CCc3sc(N)c(C#N)c32)C1 (stereo partly drawn) [Compound 40, 2-amino-1′-[5-cyano-6-(4-hydroxyazepan-1-yl)-2-[[(2R,8S)-2-fluoro-1,2,3,5,6,7-hexahydropyrrolizin-8-yl]methoxy]pyrimidin-4-yl]spiro[5,6-dihydrocyclopenta[b]thiophene-4,3′-azetidine]-3-carbonitrile] | 5.00 to 6.00 | 7.00 to 8.00 |  | 
N#Cc1c(N)sc2c1C1(CC2)CN(c2nc(OCC3(CN4CCOCC4)CC3)nc(N3C[C@H]4CC[C@@H](C3)N4)c2F)C1 [Compound 22, 2-amino-1′-[6-(3,8-diazabicyclo[3.2.1]octan-3-yl)-5-fluoro-2-[[1-(morpholinomethyl)cyclopropyl]methoxy]pyrimidin-4-yl]spiro[5,6-dihydrocyclopenta[b]thiophene-4,3′-azetidine]-3-carbonitrile] | 6.00 to 7.00 | > 8.00 |  | 
N#Cc1c(N2C[C@H]3CC[C@@H](C2)N3)nc(OCC2(c3ccn[nH]3)CC2)nc1N1CC2(CCc3sc(N)c(C#N)c32)C1 [Compound 98, 2-amino-1′-[5-cyano-6-[(1R,5S)-3,8-diazabicyclo[3.2.1]octan-3-yl]-2-[[1-(1H-pyrazol-5-yl)cyclopropyl]methoxy]pyrimidin-4-yl]spiro[5,6-dihydrocyclopenta[b]thiophene-4,3′-azetidine]-3-carbonitrile] | 5.00 to 6.00 | > 8.00 |  | 
CC1CC2(CN(c3nc(OCC4(CN5CCOCC5)CC4)nc(N4C[C@H]5CC[C@@H](C4)N5)c3C#N)C2)c2c1sc(N)c2C#N (stereo partly drawn) [Compound 45, 2-amino-1-[5-cyano-2-[[1-(morpholinomethyl)cyclopropyl]methoxy]-6-[(1R,5S)-3,8-diazabicyclo[3.2.1]octan-3-yl]pyrimidin-4-yl]-6-methyl-spiro[5,6-dihydrocyclopenta[b]thiophene-4,3′-azetidine]-3-carbonitrile] | 6.00 to 7.00 | > 8.00 |  | 
Cc1nc(-c2nn3c(c2Cl)CN(c2nc(OC[C@@]45CCCN4C[C@H](F)C5)nc(N4CC5(CCc6sc(N)c(C#N)c65)C4)c2C#N)CCC3)n(C)n1 [Compound 85, 2-amino-1′-[6-[3-chloro-2-(2,5-dimethyl-1,2,4-triazol-3-yl)-4,6,7,8-tetrahydropyrazolo[1,5-a][1,4]diazepin-5-yl]-5-cyano-2-[[(2R,8S)-2-fluoro-1,2,3,5,6,7-hexahydropyrrolizin-8-yl]methoxy]pyrimidin-4-yl]spiro[5,6-dihydrocyclopenta[b]thiophene-4,3′-azetidine]-3-carbonitrile] | 4.00 to 5.00 | > 8.00 |  | 
C[C@H](Oc1nc(N2C[C@H]3CC[C@@H](C2)N3)c(C#N)c(N2CC3(CCc4sc(N)c(C#N)c43)C2)n1)[C@@H]1CCCN1C [Compound 88, 2-amino-1′-[5-cyano-6-[(1R,5S)-3,8-diazabicyclo[3.2.1]octan-3-yl]-2-[(1S)-1-[(2S)-1-methylpyrrolidin-2-yl]ethoxy]pyrimidin-4-yl]spiro[5,6-dihydrocyclopenta[b]thiophene-4,3′-azetidine]-3-carbonitrile] | 4.00 to 5.00 | 7.00 to 8.00 |  | 
CN(C)CC1(COc2nc(N3CC4CCC(C3)N4)c(C#N)c(N3CC4(CCc5sc(N)c(C#N)c54)C3)n2)CC1(F)F (stereo not drawn) [Compound 74A, 2-amino-1′-[5-cyano-6-(3,8-diazabicyclo[3.2.1]octan-3-yl)-2-[[(1*)-1-[(dimethylamino)methyl]-2,2-difluoro-cyclopropyl]methoxy]pyrimidin-4-yl]spiro[5,6-dihydrocyclopenta[b]thiophene-4,3′-azetidine]-3-carbonitrile] |  |  | > 7.00 | > 8.00
Cn1nccc1COc1nc(N2C[C@H]3CC[C@@H](C2)N3)c(C#N)c(N2CC3(CCc4sc(N)c(C#N)c43)C2)n1 [Compound 97, 2-amino-1′-[5-cyano-2-[(2-methylpyrazol-3-yl)methoxy]-6-[(1R,5S)-3,8-diazabicyclo[3.2.1]octan-3-yl]pyrimidin-4-yl]spiro[5,6-dihydrocyclopenta[b]thiophene-4,3′-azetidine]-3-carbonitrile] | 4.00 to 5.00 | > 8.00 |  | 
C=C1CN2CCCC2(COc2nc(N3C[C@H]4CC[C@@H](C3)N4)c(C#N)c(N3CC4(CCc5sc(N)c(C#N)c54)C3)n2)C1 (stereo partly drawn) [Compound 94, 2-amino-1′-[5-cyano-2-[(6-methylene-2,3,5,7-tetrahydro-1H-pyrrolizin-8-yl)methoxy]-6-[(1R,5S)-3,8-diazabicyclo[3.2.1]octan-3-yl]pyrimidin-4-yl]spiro[5,6-dihydrocyclopenta[b]thiophene-4,3′-azetidine]-3-carbonitrile] | > 7.00 | > 8.00 |  | 
CN(C)C1(COc2nc(N3C[C@H]4CC[C@@H](C3)N4)c(C#N)c(N3CC4(CCc5sc(N)c(C#N)c54)C3)n2)CC1 [Compound 47, 2-amino-1′-[5-cyano-6-[(1R,5S)-3,8-diazabicyclo[3.2.1]octan-3-yl]-2-[[1-(dimethylamino)cyclopropyl]methoxy]pyrimidin-4-yl]spiro[5,6-dihydrocyclopenta[b]thiophene-4,3′-azetidine]-3-carbonitrile] | 4.00 to 5.00 | > 8.00 |  | 
CN(C)CC(F)(F)COc1nc(N2C[C@H]3CC[C@@H](C2)N3)c(C#N)c(N2CC3(CCc4sc(N)c(C#N)c43)C2)n1 [Compound 26, 2-amino-1′-[5-cyano-6-(3,8-diazabicyclo[3.2.1]octan-3-yl)-2-[3-(dimethylamino)-2,2-difluoro-propoxy]pyrimidin-4-yl]spiro[5,6-dihydrocyclopenta[b]thiophene-4,3′-azetidine]-3-carbonitrile] | 4.00 to 5.00 | > 8.00 |  | 
N#Cc1c(N2C[C@H]3CC[C@@H](C2)N3)nc(OCC2(CN3CCOCC3)CC2)nc1N1CC2(CCCc3sc(N)c(C#N)c32)C1 [Compound 41, 2-amino-1′-[5-cyano-2-[[1-(morpholinomethyl)cyclopropyl]methoxy]-6-[(1R,5S)-3,8-diazabicyclo[3.2.1]octan-3-yl]pyrimidin-4-yl]spiro[6,7-dihydro-5H-benzothiophene-4,3′-azetidine]-3-carbonitrile] | 6.00 to 7.00 | > 8.00 |  | 
N#Cc1c(N2C[C@H]3CC[C@@H](C2)N3)nc(OC[C@@H]2CCN2CC(F)(F)F)nc1N1CC2(CCc3sc(N)c(C#N)c32)C1 [Compound 92, 2-amino-1′-[5-cyano-6-[(1R,5S)-3,8-diazabicyclo[3.2.1]octan-3-yl]-2-[[(2S)-1-(2,2,2-trifluoroethyl)azetidin-2-yl]methoxy]pyrimidin-4-yl]spiro[5,6-dihydrocyclopenta[b]thiophene-4,3′-azetidine]-3-carbonitrile] | 4.00 to 5.00 | 7.00 to 8.00 |  | 
Cn1c(-c2cc3n(n2)CCCN(c2nc(OC[C@@]45CCCN4C[C@H](F)C5)nc(N4CC5(CCc6sc(N)c(C#N)c65)C4)c2C#N)C3)nc2ccccc21 [Compound 29, 2-amino-1′-[5-cyano-6-[2-(1-methylbenzimidazol-2-yl)-4,6,7,8-tetrahydropyrazolo[1,5-a][1,4]diazepin-5-yl]-2-[[(2R,8S)-2-fluoro-1,2,3,5,6,7-hexahydropyrrolizin-8-yl]methoxy]pyrimidin-4-yl]spiro[5,6-dihydrocyclopenta[b]thiophene-4,3′-azetidine]-3-carbonitrile] | 4.00 to 5.00 | 7.00 to 8.00 |  | 
N#Cc1c(N2C[C@H]3CC[C@@H](C2)N3)nc(OCC2(CN3CCOCC3)CC2)nc1N1CC2(C1)SCc1sc(N)c(C#N)c12 [Compound 100, 2-amino-1′-[5-cyano-6-[(1R,5S)-3,8-diazabicyclo[3.2.1]octan-3-yl]-2-[[1-(morpholinomethyl)cyclopropyl]methoxy]pyrimidin-4-yl]spiro[6H-thieno[2,3-c]thiophene-4,3′-azetidine]-3-carbonitrile] | > 7.00 | > 8.00 |  | 
N#Cc1cc2n(n1)CCCN(c1nc(OC[C@@]34CCCN3C[C@H](F)C4)nc(N3CC4(CCc5sc(N)c(C#N)c54)C3)c1C#N)C2 [Compound 24, 2-amino-1′-[5-cyano-6-(2-cyano-4,6,7,8-tetrahydropyrazolo[1,5-a][1,4]diazepin-5-yl)-2-[[(2R,8S)-2-fluoro-1,2,3,5,6,7-hexahydropyrrolizin-8-yl]methoxy]pyrimidin-4-yl]spiro[5,6-dihydrocyclopenta[b]thiophene-4,3′-azetidine]-3-carbonitrile] | 4.00 to 5.00 | 7.00 to 8.00 |  | 
N#Cc1c(N2C[C@H]3COC[C@@H](C2)N3)nc(OCC2(CN3CCOCC3)CC2)nc1N1CC2(CCc3sc(N)c(C#N)c32)C1 [Compound 42, 2-amino-1′-[5-cyano-2-[[1-(morpholinomethyl)cyclopropyl]methoxy]-6-(3-oxa-7,9-diazabicyclo[3.3.1]nonan-7-yl)pyrimidin-4-yl]spiro[5,6-dihydrocyclopenta[b]thiophene-4,3′-azetidine]-3-carbonitrile] | 5.00 to 6.00 | > 8.00 |  | 
N#Cc1c(N2CCCC(C#N)CC2)nc(OC[C@@]23CCCN2C[C@H](F)C3)nc1N1CC2(CCc3sc(N)c(C#N)c32)C1 (stereo partly drawn) [Compound 33, 2-amino-1′-[5-cyano-6-(4-cyanoazepan-1-yl)-2-[[(2R,8S)-2-fluoro-1,2,3,5,6,7-hexahydropyrrolizin-8-yl]methoxy]pyrimidin-4-yl]spiro[5,6-dihydrocyclopenta[b]thiophene-4,3′-azetidine]-3-carbonitrile] | 5.00 to 6.00 | 7.00 to 8.00 |  | 

Reference: US12145947B2, “Pyrimidine based modulators and uses thereof” (Quanta Therapeutics, Inc., priority 2022, dated 2024)
